The source of these data is patent publication US9963467B2, “Boronic acid derivatives and therapeutic uses thereof” (Rempex Pharmaceuticals, Inc., priority 2014, dated 2018).

Data set [1] concerns KP1004 (KPC-2). The data set can be described thus: Aztreonam potentiation (MPC@4), KP1004. Format: cell-based. Particulars: BLI with aztreonam at 4 μg/mL.
The test system of data set [2] is ec302 (TEM-10). Kind of data set: Aztreonam potentiation (MPC@4), ec302. Type of data set: cell-based. Particulars: BLI with aztreonam at 4 μg/mL.
The subject of the next data set is KP1086 (OXA-48). Kind of data set: Biapenem potentiation (MPC@1), KP1086. Conditions: BLI with biapenem at 1 μg/mL.
Data set [3] relates to KP1005 (CTX-M-14). The data set can be described thus: Aztreonam potentiation (MPC@4), KP1005. Format: cell-based. Particulars: BLI with aztreonam at 4 μg/mL.
The subject of data set [4] is ec308 (SHV-5). The data set can be described thus: Aztreonam potentiation (MPC@4), ec308. Type of data set: cell-based. Particulars: BLI with aztreonam at 4 μg/mL.
The target in another data set is P99 (Enterobacter cloacae, UniProt P05364). Kind of data set: Ki, nitrocefin cleavage by purified enzyme, P99. Format: biochemical. Conditions: nitrocefin reporter substrate; read-out: Ki (P99, NCF). In short, it runs like this: (§1)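 Purified enzyme was preincubated with a range of inhibitor concentrations in reaction buffer for 10 min at room temperature. Nitrocefin was then added and its cleavage followed at 490 nm every 10 sec for 10 min.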

The test system of data set [5] is ec302 (TEM-10). Kind of data set: Tigemonam potentiation (MPC@4), ec302. Format: cell-based.
The target in another data set is SHV-12 (Klebsiella pneumoniae, UniProt P0AD64, E235K/G234S/L31Q). Kind of data set: Ki, nitrocefin cleavage by purified enzyme, SHV-12. Type of data set: biochemical. Particulars: nitrocefin reporter substrate; read-out: Ki (SHV-12, NCF). The method, boiled down:
as §1

The target in the next data set is KPC-2 (Klebsiella pneumoniae, UniProt Q9F663). Kind of data set: Ki, nitrocefin cleavage by purified enzyme, KPC-2. Particulars: nitrocefin reporter substrate; read-out: Ki (KPC-2, NCF). Format: biochemical. In short, it runs like this: as §1
A further data set concerns the target CTX-M-14 (Escherichia coli, UniProt Q9L5C7). Kind of data set: Ki, nitrocefin cleavage by purified enzyme, CTX-M-14. Type of data set: biochemical. Particulars: nitrocefin reporter substrate; read-out: Ki (CTX-M-14, NCF). The method, boiled down: as §1
The test system of data set [6] is EC1010 (CMY-6). The data set can be described thus: Tigemonam potentiation (MPC@4), EC1010. Type of data set: cell-based. Conditions: BLI with tigemonam at 4 μg/mL.
Data set [7] has as its system KP1009 (CTX-M-15). Kind of data set: Tigemonam potentiation (MPC@4), KP1009. Type of data set: cell-based. Conditions: BLI with tigemonam at 4 μg/mL.
Data set [8] concerns ec308 (SHV-5). Kind of data set: Tigemonam potentiation (MPC@4), ec308. Format: cell-based.
The subject of data set [9] is ECL1002. The data set can be described thus: Aztreonam potentiation (MPC@4), ECL1002. Conditions: BLI with aztreonam at 4 μg/mL. Type of data set: cell-based.
For data set [10], the system named is EC1010 (CMY-6). Kind of data set: organism not typed. Format: cell-based.
The target in another data set is Pa AmpC (Pseudomonas aeruginosa, UniProt P24735). The data set can be described thus: Ki, nitrocefin cleavage by purified enzyme, Pa AmpC. Format: biochemical. Conditions: nitrocefin reporter substrate; read-out: Ki (Pa AmpC, NCF). The method, boiled down:
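Preincubation 10 min RT, purified enzyme with inhibitor series in reaction buffer; reporter nitrocefin; kinetic A490, 10-sec intervals, 10 min; Ki calculated.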

Data set [11] relates to KP1004 (KPC-2). The data set can be described thus: Biapenem potentiation (MPC@1), KP1004. Conditions: BLI with biapenem at 1 μg/mL.
In data set [12] the test system is KP1005 (CTX-M-14). The data set can be described thus: Tigemonam potentiation (MPC@4), KP1005. Format: cell-based. Particulars: BLI with tigemonam at 4 μg/mL.
In a further data set the target is OXA-48 (Klebsiella pneumoniae, UniProt Q6XEC0). The data set can be described thus: Ki, nitrocefin cleavage by purified enzyme, OXA-48. Conditions: nitrocefin reporter substrate; read-out: Ki (OXA-48, NCF). Type of data set: biochemical. In short, it runs like this:
as §1

In data set [13] the test system is KP1010 (SHV-12). Kind of data set: Tigemonam potentiation (MPC@4), KP1010. Type of data set: cell-based.
Data set [14] in a line: Monomer content of pH adjusted aqueous solutions (LC-UV). Format: physicochemical. Conditions: 1 mg/mL aqueous salt solution, pH adjusted to 7.6 to 8, LC-UV. The method, boiled down:
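Aqueous solutions at 1.00, 10.0 or 100 mg/mL (active fraction) brought to pH 7.6–8 with acid or base, compound fully dissolved. Injected within half an hour of preparation onto C18 reversed-phase LC (0.1% TFA water / 0.085% TFA methanol gradient); UV detection at 220, 254 and 300 nm.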

Data set [15] concerns ECL1002. The data set can be described thus: Tigemonam potentiation (MPC@4), ECL1002. Format: cell-based. Conditions: BLI with tigemonam at 4 μg/mL.
Data set [16] deals with KP1009 (CTX-M-15). Kind of data set: organism not typed. Type of data set: cell-based.
Data set [17] relates to KP1010 (SHV-12). Kind of data set: Aztreonam potentiation (MPC@4), KP1010. Format: cell-based.

Sequence of CTX-M-14 (Q9L5C7 29-291): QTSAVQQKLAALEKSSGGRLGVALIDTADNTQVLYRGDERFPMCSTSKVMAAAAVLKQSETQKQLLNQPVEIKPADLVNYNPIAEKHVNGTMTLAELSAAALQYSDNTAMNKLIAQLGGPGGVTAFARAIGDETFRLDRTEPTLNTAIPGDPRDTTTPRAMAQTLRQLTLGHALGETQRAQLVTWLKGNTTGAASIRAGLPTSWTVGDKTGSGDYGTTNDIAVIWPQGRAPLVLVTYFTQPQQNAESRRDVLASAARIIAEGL
Sequence of OXA-48 (Q6XEC0 23-265, looked up, species assumed): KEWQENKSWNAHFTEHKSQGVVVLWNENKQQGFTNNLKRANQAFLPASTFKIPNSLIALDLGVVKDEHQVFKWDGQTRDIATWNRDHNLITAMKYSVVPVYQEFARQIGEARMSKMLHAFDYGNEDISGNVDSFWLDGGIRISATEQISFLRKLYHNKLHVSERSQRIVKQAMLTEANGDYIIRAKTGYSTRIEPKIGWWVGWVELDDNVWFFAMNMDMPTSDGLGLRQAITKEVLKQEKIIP
Sequence of SHV-12 (P0AD64 22-286 L31Q/G234S/E235K): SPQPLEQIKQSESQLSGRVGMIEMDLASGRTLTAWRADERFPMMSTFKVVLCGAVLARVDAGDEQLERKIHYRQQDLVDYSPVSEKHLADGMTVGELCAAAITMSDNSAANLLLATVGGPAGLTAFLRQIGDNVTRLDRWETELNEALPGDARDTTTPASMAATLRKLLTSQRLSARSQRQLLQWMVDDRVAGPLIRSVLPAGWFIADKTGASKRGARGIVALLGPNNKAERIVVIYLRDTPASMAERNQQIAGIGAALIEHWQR
Sequence of P99 (P05364 21-381): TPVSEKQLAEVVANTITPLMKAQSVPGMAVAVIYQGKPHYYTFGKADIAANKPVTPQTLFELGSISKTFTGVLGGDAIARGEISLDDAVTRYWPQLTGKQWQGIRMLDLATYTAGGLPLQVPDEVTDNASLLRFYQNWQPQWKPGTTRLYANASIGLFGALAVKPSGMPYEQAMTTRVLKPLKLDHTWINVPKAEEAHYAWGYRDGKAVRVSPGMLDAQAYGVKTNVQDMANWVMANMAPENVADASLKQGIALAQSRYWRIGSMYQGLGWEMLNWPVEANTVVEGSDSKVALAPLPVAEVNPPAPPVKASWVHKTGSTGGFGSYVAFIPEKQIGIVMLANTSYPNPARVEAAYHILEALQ
Sequence of Pa AmpC (P24735 27-397): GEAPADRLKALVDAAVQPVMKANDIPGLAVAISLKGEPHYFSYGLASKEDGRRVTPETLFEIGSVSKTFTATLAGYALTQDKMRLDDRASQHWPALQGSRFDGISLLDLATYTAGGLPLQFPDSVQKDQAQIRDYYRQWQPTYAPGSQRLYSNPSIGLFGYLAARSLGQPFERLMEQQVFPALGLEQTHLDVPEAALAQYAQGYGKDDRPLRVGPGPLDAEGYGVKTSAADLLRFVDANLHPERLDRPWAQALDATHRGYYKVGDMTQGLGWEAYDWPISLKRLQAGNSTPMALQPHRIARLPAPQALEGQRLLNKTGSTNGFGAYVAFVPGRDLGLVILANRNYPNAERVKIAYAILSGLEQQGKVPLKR
Sequence of KPC-2 (Q9F663 25-293, looked up, species assumed): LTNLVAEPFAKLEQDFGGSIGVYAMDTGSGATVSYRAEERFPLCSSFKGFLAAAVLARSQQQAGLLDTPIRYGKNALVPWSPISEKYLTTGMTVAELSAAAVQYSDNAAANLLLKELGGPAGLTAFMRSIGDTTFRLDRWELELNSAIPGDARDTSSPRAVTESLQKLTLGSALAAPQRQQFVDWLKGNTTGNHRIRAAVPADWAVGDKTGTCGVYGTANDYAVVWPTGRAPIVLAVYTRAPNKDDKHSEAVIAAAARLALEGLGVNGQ

In the case of `CSCC(=O)N[C@H]1Cc2c(F)cc(F)c(C(=O)O)c2OB1O` [Compound 32, (R)-5,7-difluoro-2-hydroxy-3-(2-(methylthio)acetamido)-3,4-dihydro-2H-benzo[e][1,2]oxaborinine-8-carboxylic acid], the “AZT MPC4 KPC-2 KP1004” value in the data set with KP1004 (KPC-2) [1] is given as “Y (MIC of 1 μg/mL to 10 μg/mL)”. Moreover, the “AZT MPC4 TEM-10 ec302” value with ec302 (TEM-10) [2] is given as “Y (MIC of 1 μg/mL to 10 μg/mL)”. In the data set with KP1086 (OXA-48), the “BPM MPC1 OXA-48 KP1086” value was “Y (MIC of 1 μg/mL to 10 μg/mL)”. The “AZT MPC4 CTX-M-14 KP1005” value in the data set on KP1005 (CTX-M-14) [3] is listed as “Y (MIC of 1 μg/mL to 10 μg/mL)”. In the data set with ec308 (SHV-5) [4], the “AZT MPC4 SHV-5 ec308” value is reported as “Y (MIC of 1 μg/mL to 10 μg/mL)”. The Ki (as a rule, a dissociation constant, usually derived from enzyme kinetics or from competition with a known ligand) on P99 was over 10 nM; at SHV-12, under 1 nM; at KPC-2, over 10 nM; at CTX-M-14 it was 1 to 10 nM; on Pa AmpC, over 10 nM; at OXA-48, 1 to 10 nM. Further, the “TIG MPC4 TEM-10 ec302” value with ec302 (TEM-10) [5] was “Z (key: X: MIC of less than 1 ng/mL; Y: MIC of 1 μg/mL to 10 μg/mL; Z: MIC of greater than 10 μg/mL)”. Besides, in the data set with EC1010 (CMY-6) [6], the “TIG MPC4 CMY-6 EC1010” value was “Y (MIC of 1 μg/mL to 10 μg/mL)”. The “TIG MPC4 CTX-M-15 KP1009” value in the data set on KP1009 (CTX-M-15) [7] is “Y (MIC of 1 μg/mL to 10 μg/mL)”. Also, in the data set with ec308 (SHV-5) [8], the “TIG MPC4 SHV-5 ec308” value is “Y (key: X: MIC of less than 1 ng/mL; Y: MIC of 1 μg/mL to 10 μg/mL; Z: MIC of greater than 10 μg/mL)”. For the same compound, in the data set with ECL1002 [9], the “AZT MPC4 ECL1002” value is reported as “Y (MIC of 1 μg/mL to 10 μg/mL)”. In addition, the “AZT MPC4 CMY-6 EC1010” value in the data set on EC1010 (CMY-6) [10] was “Y (key: X: MIC of less than 1 ng/mL; Y: MIC of 1 μg/mL to 10 μg/mL; Z: MIC of greater than 10 μg/mL)”. Further, the “BPM MPC1 KP1004 KPC-2” value with KP1004 (KPC-2) [11] is listed as “X (MIC of less than 1 μg/mL)”. Also, in the data set with KP1005 (CTX-M-14) [12], the “TIG MPC4 CTX-M-14 KP1005” value is “Y (MIC of 1 μg/mL to 10 μg/mL)”. Besides, the “TIG MPC4 SHV-12 KP1010” value in the data set on KP1010 (SHV-12) [13] is recorded as “X (key: X: MIC of less than 1 μg/mL; Y: MIC of 1 μg/mL to 10 μg/mL; Z: MIC of greater than 10 μg/mL)”. In data set [14], the “% Monomer in 1 mg/mL salt solution” value was 95.8%. For the same compound, the “TIG MPC4 ECL1002” value in the data set on ECL1002 [15] is “Y (MIC of 1 μg/mL to 10 μg/mL)”. Also, in the data set with KP1009 (CTX-M-15) [16], the “AZT MPC4 CTX-M-15 KP1009” value was “Y (key: X: MIC of less than 1 ng/mL; Y: MIC of 1 μg/mL to 10 μg/mL; Z: MIC of greater than 10 μg/mL)”.

Turning to `NC(=O)CC(=O)N[C@H]1Cc2cccc(C(=O)O)c2OB1O` [E, reference compound], the “BPM MPC1 OXA-48 KP1086” value in the data set on KP1086 (OXA-48) is “Y (MIC of 1 μg/mL to 10 μg/mL)”. Further, the “AZT MPC4 CTX-M-14 KP1005” value with KP1005 (CTX-M-14) [3] is given as “X (MIC of less than 1 ng/mL)”. Moreover, the “AZT MPC4 SHV-5 ec308” value with ec308 (SHV-5) [4] was “X (MIC of less than 1 ng/mL)”. In the data set on ec302 (TEM-10) [5], the “TIG MPC4 TEM-10 ec302” value is given as “Z (key: X: MIC of less than 1 ng/mL; Y: MIC of 1 μg/mL to 10 μg/mL; Z: MIC of greater than 10 μg/mL)”. Moreover, the “AZT MPC4 SHV-12 KP1010” value in the data set with KP1010 (SHV-12) [17] is reported as “X (key: X: MIC of less than 1 ng/mL; Y: MIC of 1 μg/mL to 10 μg/mL; Z: MIC of greater than 10 μg/mL)”. Besides, the Ki on CTX-M-14 and on OXA-48 was under 1 nM in each case. Also, the “TIG MPC4 CTX-M-15 KP1009” value in the data set with KP1009 (CTX-M-15) [7] is given as “Y (MIC of 1 μg/mL to 10 μg/mL)”. The “TIG MPC4 SHV-5 ec308” value with ec308 (SHV-5) [8] was “Y (key: X: MIC of less than 1 ng/mL; Y: MIC of 1 μg/mL to 10 μg/mL; Z: MIC of greater than 10 μg/mL)”. The “AZT MPC4 ECL1002” value with ECL1002 [9] is “X (MIC of less than 1 ng/mL)”. For the same compound, the “AZT MPC4 CMY-6 EC1010” value with EC1010 (CMY-6) [10] was “X (key: X: MIC of less than 1 ng/mL; Y: MIC of 1 μg/mL to 10 μg/mL; Z: MIC of greater than 10 μg/mL)”. The “BPM MPC1 KP1004 KPC-2” value in the data set with KP1004 (KPC-2) [11] is recorded as “X (MIC of less than 1 μg/mL)”. In addition, the “TIG MPC4 CTX-M-14 KP1005” value in the data set on KP1005 (CTX-M-14) [12] is reported as “Y (MIC of 1 μg/mL to 10 μg/mL)”. The “TIG MPC4 SHV-12 KP1010” value in the data set on KP1010 (SHV-12) [13] is on record as “X (key: X: MIC of less than 1 μg/mL; Y: MIC of 1 μg/mL to 10 μg/mL; Z: MIC of greater than 10 μg/mL)”. The “TIG MPC4 ECL1002” value with ECL1002 [15] was “X (MIC of less than 1 μg/mL)”. In addition, in the data set on KP1009 (CTX-M-15) [16], the “AZT MPC4 CTX-M-15 KP1009” value is given as “X (key: X: MIC of less than 1 ng/mL; Y: MIC of 1 μg/mL to 10 μg/mL; Z: MIC of greater than 10 μg/mL)”.
